Measured values as given in patent US20240374655A1, “INTESTINAL MICROBIOTA AND GVHD” (Memorial Sloan-Kettering Cancer Center, priority 2014, published 2024).
Entries after “also recorded” stand apart in the source; their conditions may differ.

Experiments:
murine Blautia = test: In vitro suppression of Blautia by L. johnsonii / Lacto-conditioned media and rescue by reducing agents; type: cell-based; conditions: reducing agent added in the presence of Lacto-conditioned media
Method: A) Murine Blautia was grown in peptone yeast glucose broth either alone, or with murine L. johnsonii in conditions of limited media or ample media, and viable colonies were quantified. B) L. johnsonii was allowed to grow in media to plateau phase, then sterile filtered to generate Lacto-conditioned media. Effects of Lacto-conditioned media on the viability of L. johnsonii and murine Blautia were evaluated when mixed with fresh media in a 1:1 ratio. Effects of the addition of 3 reducing agents indicated was also evaluated.
From studying the effects of calorie restriction on intestinal microbiota composition it was observed that obligate anaerobes (Clostridia, Bacteroidetes) are reduced in abundance while facultative anaerobes (Lactobacillos, Proteobacteria) expand. Production of free radicals by E. coli in the setting of starvation has been described previously (Saby S, et al. Appl Environ Microbiol. 1999; 5600-5603). Experiments were designed to examine in vitro if Lactobacillus johnsonii could suppress the growth of our murine Blautia isolate under starvation conditions, and to further investigate if production of free radicals could be a contributing factor. […] The effects of media that had supported the growth of L. johnsonii to plateau phase were further investigated following sterile filtration. […] It was then examined if reducing agents could rescue Blautia from Lacto-conditioned-media-mediated suppression.

Clostridiales = test: Change in Clostridiales abundance in paired stool samples of allo-HSCT patients before and after starting antibiotics; type: in vivo, human; conditions: before vs after starting the antibiotic; compared to aztreonam
From the text: (A) A retrospective cohort was identified of 283 adult patients who received non-T cell depleted allo-HSCT at our center from 1994 to 2013 and received antibiotics for neutropenic fever. Patients were stratified by exposure to antibiotics with significant activity against anaerobes. Outcomes indicated were depicted by Kaplan-Meier plots and curves compared by the logrank test. (B to G) Six representative clinical cases with time courses depicted of fecal microbiota composition and administration of antibiotic treatments during the course of allo-HSCT. […] (H) Change in abundance of Clostridiales in paired fecal samples from patients undergoing allo-HSCT collected prior to and following treatment with the indicated antibiotics.
For each stool specimen, DNA was purified using a phenol-chloroform extraction technique with mechanical disruption (bead-beating) based on a previously described protocol (60). Samples were analyzed using the 454 GS FLX Titanium platform to sequence the V1-V3 region of the bacterial 16S rRNA gene or were alternatively analyzed using the Illumina MiSeq platform to sequence the V4-V5 region of the 16S rRNA gene. Sequence data were compiled and processed using mothur version 1.34 (61), screened and filtered for quality (62). Operational taxonomic units (OTUs) were classified to the species level (63) using a modified form of the Greengenes reference database (64). Principal component analysis was performed upon a weighted and normalized Unifrac (65) distance matrix of OTU abundance in R software. Data from this study has been stored in the NCBI Sequence Read Archive (see url: www.ncbi.nlm.nih.gov/sra).
HSCT patients were on intestinal bacterial composition. In 2009, our center began to prospectively collect weekly stool samples from patients undergoing allo-HSCT. From this specimen bank, we identified paired stool samples collected from patients prior to as well as following initiation of specific antibiotics during the course of allo-HSCT. […]

[1] = Antibiotic treatment in MHC-matched minor antigen-mismatched allo-HSCT GVHD model (C57BL/6 into 129S1); type: in vivo; conditions: mouse, in vivo
Method: FIGS. 16A-16J Imipenem treatment, compared to aztreonam treatment, suppresses anaerobic commensals and elevates GVHD severity in mice. (A) Flora composition analysis using 16S rRNA sequencing prior to and after treatment with the indicated antibiotics in healthy C57BL/6 mice. Mice were treated with subcutaneous (SC) injections of each antibiotic twice a day for two days (500 mg/kg for pip/tazo and 100 mg/kg for others) and stool samples were collected the following day. Values represent mean±SEM (n=3-4). *, P<0.05; **, P<0.01; ****, P<0.0001. Data are representative of two independent experiments. (B to J) Lethally irradiated 129S1 recipients were transplanted with MHC matched C57BL/6 T-cell depleted bone marrow (TCD-BM) cells and 1×10^6 C57BL/6 T cells. Control mice received TCD-BM only. Recipients were treated with imipenem or aztreonam (100 mg/kg, SC, 3 times a week from day 10 to day 24 following allo-HSCT). (B) Comparison of overall survival, with combined data from three independent experiments (n=15-43). ****, P<0.0001. (C) Mice with GVHD treated with antibiotics were sacrificed on day 21 and GVHD histology scores in target organs were quantified by a blinded pathologist. Data are combined from three independent experiments (n=5-20). *, P<0.05. (D) Stool samples obtained from mice treated with imipenem or aztreonam similarly to those in B were collected on day 21 and analyzed by 16S rRNA gene sequencing, followed by principal coordinate analysis of weighted and normalized UniFrac distances. (E and F) Differential taxonomic abundance between aztreonam treated and imipenem treated recipients was analyzed by (E) linear discriminate analysis coupled with effect size measurements (LEfSe) and (F) by LEfSe projected as a cladogram. […] (I) Stool samples collected from mice with GVHD treated with antibiotics were collected on day 21, and evaluated by metagenomic shotgun sequence analysis, comparison of bacterial species abundance determined by taxonomy. […] (J) Principal component analysis of quantification of sequence reads from KEGG gene orthologs comparing samples from mice treated with aztreonam and imipenem.
(A to G) Lethally irradiated 129S1 recipients were transplanted with C57BL/6 TCD-BM cells with 1×10^6 C57BL/6 T cells. […] (A) Colonic lamina propria-infiltrating leukocytes from recipients were analyzed on day 21 by flow cytometry. […] (C) Lamina propria-infiltrating leukocytes from the colon on day 21 were enriched for CD11b and CD11e simultaneously using a mixture of magnetic beads and IL-23 transcripts were quantified by real time PCR. […] (D) Immunofluorescent staining was used to quantify pSTAT3, CD3, and DAPI positive cells in colonic tissue collected on day 21. […]

[2] = system: intestinal microbiota (Clostridiales, Enterococcus); test: Flora composition (16S rRNA sequencing of stool) after antibiotic treatment of healthy mice; type: in vivo, C57BL/6 mice; conditions: 100 mg/kg SC twice a day for two days
Method: FIGS. 16A-16J Imipenem treatment, compared to aztreonam treatment, suppresses anaerobic commensals and elevates GVHD severity in mice. (A) Flora composition analysis using 16S rRNA sequencing prior to and after treatment with the indicated antibiotics in healthy C57BL/6 mice. Mice were treated with subcutaneous (SC) injections of each antibiotic twice a day for two days (500 mg/kg for pip/tazo and 100 mg/kg for others) and stool samples were collected the following day. Values represent mean±SEM (n=3-4). *, P<0.05; **, P<0.01; ****, P<0.0001. Data are representative of two independent experiments. (B to J) Lethally irradiated 129S1 recipients were transplanted with MHC matched C57BL/6 T-cell depleted bone marrow (TCD-BM) cells and 1×10^6 C57BL/6 T cells. Control mice received TCD-BM only. Recipients were treated with imipenem or aztreonam (100 mg/kg, SC, 3 times a week from day 10 to day 24 following allo-HSCT). (B) Comparison of overall survival, with combined data from three independent experiments (n=15-43). ****, P<0.0001. (C) Mice with GVHD treated with antibiotics were sacrificed on day 21 and GVHD histology scores in target organs were quantified by a blinded pathologist. Data are combined from three independent experiments (n=5-20). *, P<0.05. (D) Stool samples obtained from mice treated with imipenem or aztreonam similarly to those in B were collected on day 21 and analyzed by 16S rRNA gene sequencing, followed by principal coordinate analysis of weighted and normalized UniFrac distances. (E and F) Differential taxonomic abundance between aztreonam treated and imipenem treated recipients was analyzed by (E) linear discriminate analysis coupled with effect size measurements (LEfSe) and (F) by LEfSe projected as a cladogram. Data are representative from more than five independent experiments in D to F. (G and H) Comparisons of bacterial abundance at the phylogenetic levels of (G) order, and (H) genus are shown. Data are combined from 6 independent experiments (n=32-36). ***, P<0.001. (I) Stool samples collected from mice with GVHD treated with antibiotics were collected on day 21, and evaluated by metagenomic shotgun sequence analysis, comparison of bacterial species abundance determined by taxonomy. Numbers 1 through 6 along the x-axis represent the individual subjects. (J) Principal component analysis of quantification of sequence reads from KEGG gene orthologs comparing samples from mice treated with aztreonam and imipenem.
To further explore causality and mechanisms of the effects of antibiotics with anaerobic activity on GVHD, we turned to experiments in mice. […] Mice were treated by subcutaneous (SC) injections of each antibiotic twice a day for two days (500 mg/kg for pip/tazo and 100 mg/kg for others) and stool samples were collected, followed by 16S rRNA gene amplification and sequence analysis.

[3] = system: 17 strains from a clostridial mix; test: Growth of strains from a clostridial mix in BHI media without glucose with added sugars; type: cell-based, Clostridia; conditions: BHI media without glucose plus sugar
From the text: Glucose gave the best results and was able to support the growth of 10 of the total 17 strains. Glucose, however would have limited benefit since it likely doesn't give a selective advantage to the beneficial bacteria. Raffinose was able to support 5 strains, while cellobiose appeared to support 4 strains not supported by raffinose. In one embodiment, therefore, a mixture of raffinose and cellobiose can be administered to a subject to provide support for at least a portion of the beneficial bacteria.

[4] = Sugars in drinking water to augment Blautia and mitigate experimental GVHD; type: in vivo, C57BL/6 mice; conditions: for GVHD severity / survival of mice with GVHD: 10 g/L in drinking water beginning one week before BMT
Method: Left: Intestinal abundance of Blautia was evaluated on day 14 after BMT, results of a single experiment. Right: Mice were followed for development of clinical GVHD (combined results of 2 experiments).
Mice were followed for development of clinical GVHD (combined results of 3 experiments).
C57BL/6 mice were inoculated orally with a murine Blautia isolate known to ferment xylose. Some mice were then administered xylose in the drinking water (10 g/L) beginning 7 days prior to BMT with B10.BR BM and T cells.

[5] = system: Lactobacillus johnsonii of C57BL/6 origin; test: Sugar fermentation by bacterial isolate (pH and optical density in media lacking glucose); type: cell-based
Method: (§1) Utilizing Blautia isolate of C57BL/6 origin, as well as a Lactobacillus johnsonii of C57BL/6 origin, the ability of these bacteria to ferment a variety of sugars was evaluated using pH and optical density to evaluate bacterial growth in media lacking glucose. Lactobacillus johnsonii was evaluated because this bacteria expands in the setting of calorie restriction at the expense of Clostridia, and is thus presumably a direct competitor for nutrients in the murine intestine.

[6] = system: Blautia isolate of C57BL/6 origin; test: as above; type: cell-based
Method: as §1

N[C@@H](CS)C(=O)O [L-cysteine]
Rescue of Blautia growth from Lacto-conditioned-media-mediated suppression (murine Blautia): able to support Blautia growth

O=C1O[C@H]([C@@H](O)CO)C(O)=C1O [ascorbic acid]
Rescue of Blautia growth from Lacto-conditioned-media-mediated suppression (murine Blautia): able to support Blautia growth

C[C@H]1[C@H](NC(=O)/C(=N\OC(C)(C)C(=O)O)c2csc(N)n2)C(=O)N1S(=O)(=O)O [aztreonam]
Change in Clostridiales abundance in stool of patients (Clostridiales): relative preservation of Clostridiales abundances | Bacteria past the colonic epithelial barrier [1]: not seen | Abundance of Clostridiales in stool [2]: spared Clostridiales

CO/N=C(\C(=O)N[C@@H]1C(=O)N2C(C(=O)[O-])=C(C[N+]3(C)CCCC3)CS[C@H]12)c1csc(N)n1 [cefepime]
Abundance of Clostridiales in stool [2]: spared Clostridiales

O=C[C@H](O)[C@@H](O)[C@H](O[C@@H]1O[C@H](CO)[C@@H](O)[C@H](O)[C@H]1O)[C@H](O)CO [cellobiose]
Number of strains supported that are not supported by raffinose [3]: 4 strains

OC[C@H]1O[C@H](OC[C@H]2O[C@H](O[C@]3(CO)O[C@H](CO)[C@@H](O)[C@@H]3O)[C@H](O)[C@@H](O)[C@@H]2O)[C@H](O)[C@@H](O)[C@H]1O [raffinose]
Number of strains whose growth is supported ([3]; of the total 17 strains): 5 strains | GVHD severity / survival of mice with GVHD [4]: reduces GVHD severity

C[C@H](O)[C@H](O)[C@@H](O)[C@@H](O)C=O [rhamnose]
Fermentation of sugar by Lactobacillus [5]: not by Lactobacillus | Fermentation of sugar by Blautia [6]: fermented by Blautia

O=C([O-])CS.[Na+] [sodium thioglycolate]
Rescue of Blautia growth from Lacto-conditioned-media-mediated suppression (murine Blautia): able to support Blautia growth

O=C[C@H](O)[C@@H](O)[C@H](O)CO [xylose]
Fermentation of sugar by Lactobacillus [5]: not by Lactobacillus | Fermentation of sugar by Blautia [6]: fermented by Blautia | GVHD severity / survival of mice with GVHD [4]: improved survival; also recorded: reduced GVHD severity | Intestinal abundance of Blautia ([4]; 10 g/L in drinking water from 7 days before BMT, day 14 after BMT, 16S deep sequencing): expansion of Blautia; also recorded: increased abundance
